Consider 39 compounds from PubChem BioAssay AID785 (University of Pittsburgh Molecular Library Screening Center, 2007).

The target in the experiment is Serine/threonine-protein kinase PLK1 (Homo sapiens) (UniProt P53350). The experiment is described as follows: PLK1 kinase inhibitor potency, dose response, biochemical, TR-FRET, IC50 (AID 785). The note with it: recombinant human Plk1, fluorescence polarization phosphopeptide binding, 3 h.
Serine/threonine-protein kinase PLK1 (Homo sapiens), sequence (P53350 whole entry, looked up): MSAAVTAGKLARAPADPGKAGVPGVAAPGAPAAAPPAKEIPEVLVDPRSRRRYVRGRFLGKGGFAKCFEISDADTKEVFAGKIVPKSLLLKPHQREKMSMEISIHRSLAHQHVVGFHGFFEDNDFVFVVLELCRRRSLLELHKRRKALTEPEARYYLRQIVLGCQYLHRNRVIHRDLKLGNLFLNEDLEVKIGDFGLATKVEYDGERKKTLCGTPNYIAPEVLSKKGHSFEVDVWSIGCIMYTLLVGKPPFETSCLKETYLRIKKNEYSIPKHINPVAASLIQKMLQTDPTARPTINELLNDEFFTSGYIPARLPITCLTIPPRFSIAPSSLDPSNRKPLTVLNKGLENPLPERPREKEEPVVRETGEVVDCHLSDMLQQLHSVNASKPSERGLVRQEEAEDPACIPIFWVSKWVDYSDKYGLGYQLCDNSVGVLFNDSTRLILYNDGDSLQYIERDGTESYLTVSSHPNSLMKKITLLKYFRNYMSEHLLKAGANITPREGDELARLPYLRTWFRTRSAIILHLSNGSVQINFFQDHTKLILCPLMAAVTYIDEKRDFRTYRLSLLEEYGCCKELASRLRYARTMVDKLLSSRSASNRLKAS
With `Cc1ncc([N+](=O)[O-])n1CCOC(=O)Nc1ccc(Cl)c(Cl)c1`, the IC50 was 0.775 µM.
For `O=C(CSc1n[nH]c(-c2ccc(Cl)cc2Cl)n1)Nc1ccccn1`, the IC50 was 0.534 µM.
To `CCOC(=O)c1c(-c2ccncc2)csc1N` belongs 7.01 µM.
As to `N#Cc1c(-c2ccc3c(c2)OCO3)csc1N`, the IC50 is 10.7 µM.
With `O=C(Nc1cccnc1)c1cnn2cccnc12`, the IC50 is 4.07 µM.
For the compound `COc1cccc(Nc2ncnc3nc[nH]c23)c1`, the IC50 was 2.37 µM.
To `Nc1[nH]ncc1C(=O)Nc1cccc(C(F)(F)F)c1` belongs 0.888 µM; to `CCc1nc2n[nH]c(N)c2c2c1CSC(C)(C)C2`, 5.1 µM.
On to `Cc1cccc(Nc2ncnc3nc[nH]c23)c1`, for which the half-maximal inhibitory concentration (IC50) is 2.23 µM.
For the compound `CC1CCN(c2ncnc3nc[nH]c23)CC1`, the 50% inhibitory concentration (IC50) is 3.13 µM.
Turning to `CCOc1c(Br)ccc2c1sc1nc[nH]c(=O)c12`, the IC50 is 2.15 µM.
Turning to `Nc1ncnc(Nc2cccc(C(F)(F)F)c2)n1`, the concentration for half-maximal inhibition (IC50) was 0.469 µM.
For `c1ccc2c(-c3ccncc3)c[nH]c2c1`, the IC50 is 4.12 µM.
To `O=C(O)c1ccc2c(c1)[C@@H]1C=CC[C@@H]1[C@H](c1ccccn1)N2` belongs 16.9 µM; to `Cc1cccc(N=Nc2c(N)n[nH]c2-c2ccc(Cl)cc2)c1`, 18.5 µM.
As to `COC(=O)c1c(-c2ccc(Br)cc2)noc1N`, the IC50 is 7.93 µM.
On to `CCOC(=O)c1sc2nc[nH]c(=O)c2c1C`, for which the IC50 was 3.09 µM.
As for `Cc1nc2c([nH]1)C1(CCN(Cc3ccccc3)CC1)C(C#N)=C(N)O2`, the IC50 is 0.823 µM.
Take `Cc1c(C(=O)OC(C)C)sc2nc[nH]c(=O)c12`: the half-maximal inhibitory concentration (IC50) was 4.01 µM.
In the case of `Cc1cc(C(C#N)c2cccc(Cl)c2)n2ncnc2n1` (centres undefined), the IC50 was 5.98 µM.
Turning to `O=c1[nH]cnc2cc(-c3ccccc3)sc12`, the half-inhibitory concentration (IC50) was 6.2 µM.
As to `COc1ccccc1Nc1ncnc2nc[nH]c12`, the IC50 was 1.01 µM.
On to `COC(=O)c1sc2nc[nH]c(=O)c2c1C`, for which the half-inhibitory concentration (IC50) is 1.44 µM.
For the compound `NC(=O)c1ccc(C(F)(F)F)n(Cc2cccc(Cl)c2)c1=O`, the concentration for half-maximal inhibition (IC50) was 22.8 µM.
As to `NNc1ncnc2c1cnn2-c1ccccc1`, the 50% inhibitory concentration (IC50) was 4.18 µM.
For the compound `C=CCNc1nc(N)c(C(=O)c2ccc3c(c2)OCO3)s1`, the 50% inhibitory concentration (IC50) was 3.85 µM.
To `N#C/C(=N\Nc1c(Cl)cccc1Cl)C(=O)NN` belongs 0.814 µM; to `COc1cc(/C=C(\C#N)c2[nH]nc(N)c2C#N)cc(OC)c1O`, 1.86 µM.
Regarding `Cc1oc2ncnc(N)c2c1C`, the IC50 was 3.75 µM.
`Nc1[nH]ncc1N=Nc1ccc(Cl)cc1`: the IC50 was 2.22 µM.
For `O=c1[nH]cnc2sc(-c3ccccc3)cc12`, the half-maximal inhibitory concentration (IC50) is 6.08 µM.
For `Nc1nc2ccc([N+](=O)[O-])c(N)c2s1`, the IC50 is 0.235 µM.
As to `COc1ccc(N2Nc3n[nH]c(N)c3N2)cc1`, the IC50 was 1.64 µM.
The same measure for `COc1ccc(Cn2c(N)c(C(=O)NCc3ccco3)c3nc4ccccc4nc32)cc1OC`: 8.82 µM.
Regarding `Nc1ncnc(Nc2ccccc2C(F)(F)F)n1`, the concentration for half-maximal inhibition (IC50) was 4.84 µM.
Consider `CCOc1ccc(N2Nc3n[nH]c(N)c3N2)cc1`, for which the IC50 is 3.4 µM.
In the case of `CC1Cc2nc(SCC(=O)Nc3nccs3)n(C)c(=O)c2S1` (centres undefined), the concentration for half-maximal inhibition (IC50) was 9.72 µM.
To `Cc1[nH]nc2c1C1(CCN(Cc3ccccc3)CC1)C(C#N)=C(N)O2` belongs 1.4 µM; to `O=c1[nH]cnc2scc(-c3cccs3)c12`, 4.24 µM.

As a reminder, the IC50 is the concentration needed to halve the response being measured.
